# Patent US7741280B2, “Multimeric molecules, the preparation method thereof and use of same for the preparation of medicaments” (Centre National de la Recherche Scientifique, priority 2002, dated 2010)
# Where two headings read alike, the source gives them in different places. Where a SMILES comes first, the peptide text is derived from it. Bridges are numbered along the chain shown (N, C = ends). Roman numbers before positions name the chains, in order. Where no end group is shown, it is not given here. Side-chain parts run from the residue outwards. [ ]: non-standard residue; d: D form. Ahx = NCCCCCC(=O)O
# B1: Compound L2 (ligand L2), core structure of the ligands L1 and L3 (peptide)
# chain: KKKKA
# modifications: also: four Lys joined through epsilon-amines (isopeptide bonds), free amine groups acetylated
# B2: Compound L4a (ligand L4a): same core molecule as L4 with only 2 examples of the peptide sequence (peptide)
# chain: [dA]K[dA]K[dA]K
# peptide: H-KGYY[Ahx]
# modifications: also: two copies of chain 2 linked via Ahx to epsilon-amines of two core Lys, which Lys not given here, further groups not given here, head-to-tail to a chain's N/C-terminus
# B3: CD40L: human CD154 muCD8 fusion protein, ANCELL Corporation (protein)
# chain: KPQAPELRIFPKKMDAELGQKVDLVCEVLGSVSQGCSWLFQNSSSKLPQPTFVVYMASSHNKITWDEKLNSSKLFSAMRDTNNKYVLTLNKFSKENEGYYFCSVISNSVMYFSSVVPVLQKVNSTTTKPVLRTPSPVHPTGTSQPQRPEDCRPRGSVKGTGLDFACDIYHRRLDKIEDERNLHEDFVFMKTIQRCNTGERSLSLLNCEEIKSQFEGFVKDIMLNKEETKKENSFEMQKGDQNPQIAAHVISEASSKTTSVLQWAEKGYYTMSNNLVTLENGKQLTVKRQGLYYIYAQVTFCSNREASSQAPFIASLCLKSPGRFERILLRAANTHSSAKPCGQQSIHLGGVFELQPGASVFVNVTDPSQVSHGTGFTSFGLLKL
# How the values were obtained:
# [1] = target: T1, CD40-CD40L interaction (Homo sapiens, UniProt P25942); assay: Expression of CD95 induced by CD40L on BL41 cells cultured with 3T6-CD40L fibroblasts (flow cytometry); type: cell-based; settings: for % of inhibition of the expression of CD95 induced by CD40L: BL41 + 3T6-CD40L, 48 hours
# T1 construct: they receive a signal via the CD40 molecule, which they express in a constitutive manner; endogenous in cells; host or cells: BL41 Burkitt's lymphoma cells (endogenous CD40), co-cultured with 3T6 fibroblasts transfected with CD40L
# Protocol: Then, the affinity of these ligands for the CD40 molecule is evaluated using a biosensor (BIAcore™). The agonist or antagonist effect of the ligands was tested using two simple biological tests. In the first, the expression of the membranous molecule CD95 by transformed B cells (Burkitt's lymphoma) is studied after activation by the CD40-CD40L interaction (Schattner et al., 1996). In such a model, the CD40L partner is expressed on transfected fibroblasts (3T6-CD40L) (Buelens et al., 1997). The BL41 Burkitt's lymphoma cells are incubated with non-transfected 3T6 fibroblasts (FIGS. 3A and 3C) or with 3T6 fibroblasts transfected by CD40L (FIGS. 3B and 3D). After 48 hours, the expression of CD95 is evaluated by flow cytometry. The expression of CD95 is induced in the presence of CD40L (FIG. 3B). A commercial anti-CD40L antibody inhibits the consequences of the CD40-CD40L interaction (FIG. 3D).
# The antagonist effect is evaluated by measurement of the decrease in the expression of CD95 induced by the CD40L in the presence of the different chemical ligands (see Table I). With the help of these tests, the most interesting ligands are chosen to evaluate their activity in vivo and in vitro in more complex models.
# The lymphoma B cells express the CD95 molecule when they receive a signal via the CD40 molecule, which they express in a constitutive manner. This signal is generally conveyed by the CD40L (CD154) molecule expressed by another cell. The antagonist ligands inhibit the binding of CD40 on CD40L and thus […] the expression of CD95. The agonist ligands copy the CD40L molecule and induce the expression of CD95 even in the absence of the cell expressing CD40L.
# The BL41 Burkitt's lymphoma cells (5.10^5/ml) are cultured in the presence of 3T6 fibroblasts (10^5/ml) transfected (3T6-CD40L) or not transfected with CD40L (3T6), and treated with mitomycin to stop their proliferation. The ligands are added at the start of the culture at the chosen concentration. After culture for 48 hours, expression of the CD95 molecule is measured by flow cytometry. The BL41 cells are distinguished from the fibroblasts using an anti-CD19 antibody (specific marker of the B cells).
# [2] = target: T2, human CD40 muIg fusion protein (UniProt P01863+P25942); assay: Biacore3000 surface plasmon resonance study of the CD40/CD40L interaction and the ligands; type: binding
# T2 construct: purchased ANCELL Corporation, Bayport, Minn
# Excerpt: The Biacore3000 is a device which allows the interactions between two molecules to be studied, based on the surface plasmon resonance. It allows measurement in real time, and therefore allows the kinetics of interaction (association and disassociation) of an analyte (which is in an injected solution) and of a ligand (immobilised on a microchip supporting the measurement) to be monitored. The kinetic measurements at different concentrations of analyte allow calculation of the affinity constants of the interaction between the ligand and the analytes. The microchip contains four cells for different measurements, which allows direct comparison of a reference cell on which a protein which is not pertinent (protein which has no affinity with the ligand studied), but close to the ligand is immobilised with the cell on which the ligand is immobilised.
# Rabbit antibodies directed against the constant region of mouse immunoglobulins were immobilized on a microchip. In the reference cell a monoclonal mouse antibody of isotype IgG2a (LG112) at 40 nM is immobilized with a flow of 5 μL/min for 2 minutes; in the cell of the ligand the recombinant CD40 associated with the constant region of the mouse IgG2a heavy chain (human CD40 muIg fusion protein, ANCELL Corporation, Bayport, Minn.) is immobilized under the same conditions.
# On the two cells (reference and ligand), the CD40L (human CD154 muCD8 fusion protein, ANCELL Corporation) at different concentrations or the CD40L at a concentration of 1 μM or of 125 nM, are injected, as analyte, in the presence of different concentrations of ligands. The flow in the presence of the analytes is 10 μL/min for 5 minutes to study the association and, in the absence of analytes, the conditions are the same to study the dissociation.
# In order to regenerate the cells (i.e. remove all the proteins adsorbed in a non-covalent manner), a solution of 10 mM of HCl is injected at 5 μL/min for 1 minute. The cells are then ready for another analysis.
# [3] = system: BL41 Burkitt's lymphoma cells; assay: Inhibition of proliferation of BL41 cells (incorporation of tritiated thymidine); type: cell-based; settings: 24 hours culture, FIG. 4A, 50 μM to 50 nM
# Protocol: Tritiated thymidine was added at a concentration of 1 μci/well (0.8.10^5 cells/well) for the last 8 hours of culture and the incorporation of tritiated thymidine measured using a gaseous scintillation β counter.
# The second test is based on the property of certain B lymphomas to cease proliferation and enter apoptosis during the bridging of their membranous CD40 molecule (Tong et al., 1999). In this test, the BL41 cells are incubated with ligands CD40 and after 24 hours either the inhibition of proliferation of these cells is measured, by studying the incorporation of tritiated thymidine, or the percentage of apoptotic cells is measured with a flow cytometry study (FIGS. 4A and 4B).
# Certain B lymphomas enter apoptosis when their CD40 molecule is bridged by an anti-CD40 antibody or by CD40L which is soluble independently from the CD95 molecule. This induction of apoptosis is expressed as a decrease in proliferation measured by the incorporation of tritiated thymidine. The agonist ligands of CD40 will induce an increase in apoptosis and as a result a decrease in the incorporation of tritiated thymidine.
# The BL41 Burkitt's lymphoma cells (4.10^5/mL) are cultured in the presence of the different ligands at the chosen concentration. After 24 hours, the cells are either incubated for 8 hours with tritiated thymidine (1 μci/well) to measure the proliferation or are labelled with Annexin V-FITC and propidium iodide to evaluate the percentage of apoptotic cells with flow cytometry.
# [4] = target: CD40 molecule expressed constitutively by BL41 Burkitt's lymphoma cells (UniProt P25942); assay: cell-based or functional assay
# Sequence of CD40 molecule expressed constitutively by BL41 Burkitt's lymphoma cells (P25942 21-277 limits assumed): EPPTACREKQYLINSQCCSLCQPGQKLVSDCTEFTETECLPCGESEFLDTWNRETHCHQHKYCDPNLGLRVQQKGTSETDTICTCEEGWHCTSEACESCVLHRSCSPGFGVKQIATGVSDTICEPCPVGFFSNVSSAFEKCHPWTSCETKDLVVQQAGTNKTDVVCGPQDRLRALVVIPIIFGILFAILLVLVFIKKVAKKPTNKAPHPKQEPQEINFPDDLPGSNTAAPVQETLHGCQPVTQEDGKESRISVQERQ
# T2 sequence (P25942+P01863 fused): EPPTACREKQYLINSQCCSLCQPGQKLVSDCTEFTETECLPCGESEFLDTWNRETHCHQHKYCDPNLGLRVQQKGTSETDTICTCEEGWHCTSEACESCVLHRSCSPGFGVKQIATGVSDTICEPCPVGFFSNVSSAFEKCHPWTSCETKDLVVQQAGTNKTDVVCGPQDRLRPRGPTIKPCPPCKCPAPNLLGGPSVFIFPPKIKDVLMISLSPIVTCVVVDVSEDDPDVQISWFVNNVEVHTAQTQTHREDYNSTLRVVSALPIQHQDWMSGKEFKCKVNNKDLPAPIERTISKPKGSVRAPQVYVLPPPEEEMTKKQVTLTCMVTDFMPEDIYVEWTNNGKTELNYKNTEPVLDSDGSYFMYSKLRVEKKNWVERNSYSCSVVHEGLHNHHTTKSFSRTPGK
# T1 sequence (P25942 21-277): as the sequence (P25942 21-277 limits assumed) above
molecule,measurement,setting,value
C[C@H](NC(=O)[C@H](CCCCNC(=O)[C@H](CCCCNC(=O)[C@H](CCCCNC(=O)[C@H](CCCCNC(=O)[C@H](CCCNC(=N)N)NC(=O)[C@@H]1CCCN1C[C@@H](N)CCCCN)NC(=O)[C@H](CCCNC(=N)N)NC(=O)[C@@H]1CCCN1C[C@@H](N)CCCCN)NC(=O)[C@H](CCCNC(=N)N)NC(=O)[C@@H]1CCCN1C[C@@H](N)CCCCN)NC(=O)[C@H](CCCNC(=N)N)NC(=O)[C@@H]1CCCN1C[C@@H](N)CCCCN)NC(=O)[C@H](CCCNC(=N)N)NC(=O)[C@@H]1CCCN1C[C@@H](N)CCCCN)C(=O)O [L1],% of inhibition of the expression of CD95 induced by CD40L,[1]; ligand 25 μM,0%
same,% of inhibition of the expression of CD95 induced by CD40L,[1]; ligand 50 μM,43%
same,% of inhibition of the expression of CD95 induced by CD40L,[1]; ligand 100 μM,60%
same,Kd,"[2]; analyte CD40L at 1 μM and L1 at 50 μM, read-out: equilibrium constant",> 50000 nM
CC(=O)NCCCC[C@H](NC(C)=O)C(=O)NCCCCC(NC(C)=O)C(=O)NCCCC[C@H](NC(C)=O)C(=O)NCCCC[C@H](NC(C)=O)C(=O)N[C@@H](C)C(=O)O (stereo partly shown) [L2],effect on the expression of CD95 induced by CD40L (in words),"[1]; BL41 cells in the presence of 3T6-CD40L cells, no concentration stated",no effect
same,% of inhibition of the expression of CD95 induced by CD40L,[1]; ligand 25 μM,0%
same,% of inhibition of the expression of CD95 induced by CD40L,[1]; ligand 50 μM,0%
same,% of inhibition of the expression of CD95 induced by CD40L,[1]; ligand 100 μM,0%
"C[C@H](NC(=O)[C@H](CCCCNC(=O)[C@H](CCCCNC(=O)[C@H](CCCCNC(=O)[C@H](CCCCNC(=O)[C@H](Cc1ccc(O)cc1)NC(=O)[C@H](Cc1ccc(O)cc1)NC(=O)CNC(=O)[C@@H](N)CCCCN)NC(=O)[C@H](Cc1ccc(O)cc1)NC(=O)[C@H](Cc1ccc(O)cc1)NC(=O)CNC(=O)[C@@H](N)CCCCN)NC(=O)[C@H](Cc1ccc(O)cc1)NC(=O)[C@H](Cc1ccc(O)cc1)NC(=O)CNC(=O)[C@@H](N)CCCCN)NC(=O)[C@H](Cc1ccc(O)cc1)NC(=O)[C@H](Cc1ccc(O)cc1)NC(=O)CNC(=O)[C@@H](N)CCCCN)NC(=O)[C@H](Cc1ccc(O)cc1)NC(=O)[C@H](Cc1ccc(O)cc1)NC(=O)CNC(=O)[C@@H](N)CCCCN)C(=O)O [L3] (I: H-KGYYKA-OH / II: H-KGYYK([Tyr-Tyr-Gly-Lys]) / III: H-KGYYK / IV: H-KGYYK; amide I:5-IV:C, II:C-III:5, III:C-IV:5)",% of inhibition of the expression of CD95 induced by CD40L,[1]; ligand 5 μM,0%
same,% of inhibition of the expression of CD95 induced by CD40L,[1]; ligand 10 μM,13%
same,% of inhibition of the expression of CD95 induced by CD40L,[1]; ligand 25 μM,25%
same,% of inhibition of the expression of CD95 induced by CD40L,[1]; ligand 50 μM,62%
same,% of inhibition of the expression of CD95 induced by CD40L,[1]; ligand 100 μM,60%
NCCCC[C@H](N)C(=O)NCC(=O)N[C@@H](Cc1ccc(O)cc1)C(=O)N[C@@H](Cc1ccc(O)cc1)C(=O)NCCCCCC(=O)NCCCC[C@H]1CC(=O)N[C@@H](CCCCNC(=O)CCCCCNC(=O)[C@H](Cc2ccc(O)cc2)NC(=O)[C@H](Cc2ccc(O)cc2)NC(=O)CNC(=O)[C@@H](N)CCCCN)CC(=O)N[C@@H](CCCCNC(=O)CCCCCNC(=O)[C@H](Cc2ccc(O)cc2)NC(=O)[C@H](Cc2ccc(O)cc2)NC(=O)CNC(=O)[C@@H](N)CCCCN)CC(=O)N1 [L9],IC50,"[2]; in the presence of 100 nM of CD40L, read-out: inhibition of 50% of the binding of CD40L (IC50)",< 50 nM
same,equilibrium constant compared with L4,"[2]; inferred from IC50, same conditions as L4",less than that of L4
L7-2: L7 analogue with the reverse sequence H-Tyr-Tyr-Gly-Lys- (YYGK),inhibition of the proliferation of BL41 cells (in words),[3],only have a small or no effect
"L7-3: L7 analogue: replacement of the aminohexanoic acid spacer arm by a glycine (KGYYG; not fully specified (C-terminus); also: L7 analogue: aminohexanoic acid spacer replaced by glycine, core as L7)",inhibition of the proliferation of BL41 cells (in words),[3],only have a small or no effect
"L12: from linear 8-B core coupled with pentapeptide 1-A; linear version of L9 (chain Lys-Lys-Lys; peptide KGYY; not fully specified (some residues, C-terminus); also: peptide (pentapeptide 1-A) coupled to linear core 8-B, linkage and core structure not given here)",binding to CD40 and displacement of CD40L (in words),[2]; in the presence of 100 nM of CD40L,Only the L4 and L9 molecules bind to CD40
B1,"% of inhibition of the expression of CD95 induced by CD40L, ligand at 25 µM",[4],0%
same,"% of inhibition of the expression of CD95 induced by CD40L, ligand at 50 µM",[4],0%
same,"% of inhibition of the expression of CD95 induced by CD40L, ligand at 100 µM",[4],0%
B2,"% of inhibition of the expression of CD95 induced by CD40L, ligand at 0.5 µM",[4],0%
same,"% of inhibition of the expression of CD95 induced by CD40L, ligand at 5 µM",[4],8%
same,"% of inhibition of the expression of CD95 induced by CD40L, ligand at 50 µM",[4],13%
B3,Kd,"[2]; 4 concentrations of CD40L from 62.5 to 500 nM, read-out: equilibrium constant of CD40L for CD40",54 nM
